According to ChEMBL document CHEMBL4184209, “Identification and initial optimization of inhibitors of Clostridium difficile (C. difficile) toxin B (TcdB)” (Bioorg Med Chem Lett, 2018):
Calls of active or inactive are those of the source.

What was measured:
Toxin B [1] = biological target: T1, Toxin B (Clostridioides difficile, UniProt P18177); assay: Inhibition of C-terminal 6-His tagged recombinant Clostridium difficile toxin B catalytic fragment (Met1 to Leu543 residues) assessed as reduction in glucosyltransferase domain UDP-glucose hydrolysis activity using UDP-glucose and ADP Alexa633 tracer incubated fore 3 hrs by fluorescence polarization assay
Toxin B [2] = biological target: T1, Toxin B; assay: Inhibition of Clostridium difficile toxin B […] assessed as reduction in caspase 3/7 activation pre-incubated for 1 hr before TcdB addition by luminescence based assay1; type: cell-based
Toxin A = Toxin A (Clostridioides difficile, UniProt P16154); assay: Inhibition of Clostridium difficile toxin A […] assessed as reduction in caspase 3/7 activation pre-incubated for 1 hr before TcdA addition by luminescence based assay1; type: cell-based
[3] = Stability in human liver microsomes assessed as parent compound remaining level incubated for 15 mins; type: ADME, microsome; settings: read-out: Stability
[4] = Stability in mouse liver microsomes assessed as parent compound remaining level incubated for 15 mins; type: ADME, microsome; settings: read-out: Stability
Clostridioides difficile = assay: Effect on growth of Clostridium difficile at 0.5 to 100 uM incubated for 24 hrs under anaerobic conditions by spectrophotometry; type: functional, organism-based
[5] = tested on: Limosilactobacillus reuteri; assay: Effect on growth of Lactobacillus reuteri at 0.5 to 100 uM incubated for 24 hrs under anaerobic conditions by spectrophotometry; type: organism-based
Bifidobacterium longum = assay: Effect on growth of Bifidobacterium longum at 0.5 to 100 uM incubated for 24 hrs under anaerobic conditions by spectrophotometry; type: organism-based
Bacteroides fragilis = assay: Effect on growth of Bacteroides fragilis at 0.5 to 100 uM incubated for 48 hrs under anaerobic conditions by spectrophotometry; type: organism-based
[6] = AUC (0 to 24 hrs) in CD1 mouse at 1 mg/kg, iv; type: ADME, organism-based; parameters: dose 1 mg/kg, time < 24 hr, route intravenous; settings: in vivo
[7] = AUC (0 to 24 hrs) in CD1 mouse at 10 mg/kg, po; type: ADME, organism-based; parameters: dose 10 mg/kg, time < 24 hr, route oral; settings: in vivo
[8] = Cmax in CD1 mouse at 1 mg/kg, iv; type: ADME, organism-based; parameters: dose 1 mg/kg, route intravenous; settings: in vivo
[9] = Cmax in CD1 mouse at 10 mg/kg, po; type: ADME, organism-based; parameters: dose 10 mg/kg, route oral; settings: in vivo
[10] = Tmax in CD1 mouse at 10 mg/kg, po; type: ADME, organism-based; settings: in vivo
[11] = Stability in mouse plasma assessed as parent compound remaining measured after 15 mins post dose; type: ADME, cell-free; settings: read-out: Stability
[12] = Stability in mouse plasma assessed as parent compound remaining measured after 2 hrs post dose; type: ADME, cell-free
[13] = Clearance in CD1 mouse at 1 mg/kg, iv; type: ADME, organism-based; settings: in vivo
[14] = Elimination half life in CD1 mouse at 1 mg/kg, iv; type: ADME, organism-based; settings: in vivo, read-out: beta t1/2 (converted)
[15] = Apparent volume of distribution in CD1 mouse at 1 mg/kg, iv; type: ADME, organism-based; settings: in vivo, read-out: Vz
[16] = Stability in mouse plasma assessed as parent compound remaining measured during 0 to 120 mins post dose; type: ADME, cell-free

Chain of Toxin A (P16154 whole entry): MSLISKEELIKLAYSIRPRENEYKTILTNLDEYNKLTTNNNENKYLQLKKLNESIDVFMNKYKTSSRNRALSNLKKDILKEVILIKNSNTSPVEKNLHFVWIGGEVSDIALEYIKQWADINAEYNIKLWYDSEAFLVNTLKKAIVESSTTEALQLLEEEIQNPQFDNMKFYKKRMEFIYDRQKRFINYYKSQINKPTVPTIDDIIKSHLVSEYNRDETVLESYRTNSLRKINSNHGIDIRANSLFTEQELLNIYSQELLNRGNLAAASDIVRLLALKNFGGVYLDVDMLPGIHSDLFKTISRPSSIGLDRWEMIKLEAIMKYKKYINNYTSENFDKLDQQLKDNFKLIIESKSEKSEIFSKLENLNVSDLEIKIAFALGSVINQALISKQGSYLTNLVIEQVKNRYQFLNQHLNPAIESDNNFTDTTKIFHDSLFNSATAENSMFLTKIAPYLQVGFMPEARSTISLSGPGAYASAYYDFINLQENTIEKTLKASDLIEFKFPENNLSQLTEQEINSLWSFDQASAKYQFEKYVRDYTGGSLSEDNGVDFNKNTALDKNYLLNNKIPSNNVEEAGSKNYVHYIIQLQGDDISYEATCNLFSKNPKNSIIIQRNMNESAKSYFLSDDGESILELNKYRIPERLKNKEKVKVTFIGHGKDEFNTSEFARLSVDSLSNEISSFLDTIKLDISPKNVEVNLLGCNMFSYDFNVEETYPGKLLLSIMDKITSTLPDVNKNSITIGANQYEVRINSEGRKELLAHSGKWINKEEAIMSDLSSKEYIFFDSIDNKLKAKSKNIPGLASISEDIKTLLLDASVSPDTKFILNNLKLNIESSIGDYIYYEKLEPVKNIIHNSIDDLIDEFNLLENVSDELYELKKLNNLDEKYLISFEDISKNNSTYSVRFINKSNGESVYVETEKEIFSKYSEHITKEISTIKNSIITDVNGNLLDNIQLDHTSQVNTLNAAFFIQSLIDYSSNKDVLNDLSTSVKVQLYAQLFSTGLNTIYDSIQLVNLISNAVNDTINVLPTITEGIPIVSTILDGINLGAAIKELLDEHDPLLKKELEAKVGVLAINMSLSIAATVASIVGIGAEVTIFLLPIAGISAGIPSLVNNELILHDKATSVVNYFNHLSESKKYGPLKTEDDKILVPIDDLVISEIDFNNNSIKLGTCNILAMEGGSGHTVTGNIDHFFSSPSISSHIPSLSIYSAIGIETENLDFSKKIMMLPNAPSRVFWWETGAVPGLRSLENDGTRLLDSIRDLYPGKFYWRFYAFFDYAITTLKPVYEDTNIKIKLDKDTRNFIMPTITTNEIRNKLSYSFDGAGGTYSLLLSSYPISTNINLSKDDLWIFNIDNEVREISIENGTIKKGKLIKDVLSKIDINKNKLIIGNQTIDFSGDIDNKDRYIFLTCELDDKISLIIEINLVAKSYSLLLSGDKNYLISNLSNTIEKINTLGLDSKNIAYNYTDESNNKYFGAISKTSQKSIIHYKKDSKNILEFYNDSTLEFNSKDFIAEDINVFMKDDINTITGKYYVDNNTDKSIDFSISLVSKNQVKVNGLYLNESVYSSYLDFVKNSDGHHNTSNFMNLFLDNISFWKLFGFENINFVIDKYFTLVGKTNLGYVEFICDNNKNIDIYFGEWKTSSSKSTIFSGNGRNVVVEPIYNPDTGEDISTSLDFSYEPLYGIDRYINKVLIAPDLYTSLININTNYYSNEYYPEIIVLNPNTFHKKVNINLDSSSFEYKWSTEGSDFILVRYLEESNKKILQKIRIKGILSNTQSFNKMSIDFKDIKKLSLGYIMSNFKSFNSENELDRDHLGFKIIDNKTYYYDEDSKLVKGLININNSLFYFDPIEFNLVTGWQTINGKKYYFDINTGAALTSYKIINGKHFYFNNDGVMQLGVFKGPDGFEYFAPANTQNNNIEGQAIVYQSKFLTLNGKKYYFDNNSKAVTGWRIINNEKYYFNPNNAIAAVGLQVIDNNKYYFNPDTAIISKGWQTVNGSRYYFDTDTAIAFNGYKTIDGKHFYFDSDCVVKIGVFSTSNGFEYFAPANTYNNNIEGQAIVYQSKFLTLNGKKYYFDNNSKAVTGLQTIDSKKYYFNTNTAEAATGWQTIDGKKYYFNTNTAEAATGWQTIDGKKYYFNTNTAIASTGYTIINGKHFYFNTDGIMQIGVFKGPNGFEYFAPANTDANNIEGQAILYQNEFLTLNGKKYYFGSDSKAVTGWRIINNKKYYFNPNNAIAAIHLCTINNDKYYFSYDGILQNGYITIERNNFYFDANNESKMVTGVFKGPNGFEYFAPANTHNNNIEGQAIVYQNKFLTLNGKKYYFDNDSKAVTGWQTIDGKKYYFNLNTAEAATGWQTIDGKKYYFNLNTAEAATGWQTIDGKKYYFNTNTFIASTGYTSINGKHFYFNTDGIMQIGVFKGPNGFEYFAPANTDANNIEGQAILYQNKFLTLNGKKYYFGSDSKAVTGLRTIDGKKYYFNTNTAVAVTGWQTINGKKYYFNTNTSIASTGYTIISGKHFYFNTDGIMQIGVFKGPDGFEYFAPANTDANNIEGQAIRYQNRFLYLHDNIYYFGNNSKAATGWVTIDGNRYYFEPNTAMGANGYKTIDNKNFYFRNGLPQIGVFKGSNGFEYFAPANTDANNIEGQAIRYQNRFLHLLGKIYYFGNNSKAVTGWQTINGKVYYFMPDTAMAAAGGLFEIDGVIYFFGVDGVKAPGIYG
T1 sequence (P18177 whole entry, the tested form may be a part): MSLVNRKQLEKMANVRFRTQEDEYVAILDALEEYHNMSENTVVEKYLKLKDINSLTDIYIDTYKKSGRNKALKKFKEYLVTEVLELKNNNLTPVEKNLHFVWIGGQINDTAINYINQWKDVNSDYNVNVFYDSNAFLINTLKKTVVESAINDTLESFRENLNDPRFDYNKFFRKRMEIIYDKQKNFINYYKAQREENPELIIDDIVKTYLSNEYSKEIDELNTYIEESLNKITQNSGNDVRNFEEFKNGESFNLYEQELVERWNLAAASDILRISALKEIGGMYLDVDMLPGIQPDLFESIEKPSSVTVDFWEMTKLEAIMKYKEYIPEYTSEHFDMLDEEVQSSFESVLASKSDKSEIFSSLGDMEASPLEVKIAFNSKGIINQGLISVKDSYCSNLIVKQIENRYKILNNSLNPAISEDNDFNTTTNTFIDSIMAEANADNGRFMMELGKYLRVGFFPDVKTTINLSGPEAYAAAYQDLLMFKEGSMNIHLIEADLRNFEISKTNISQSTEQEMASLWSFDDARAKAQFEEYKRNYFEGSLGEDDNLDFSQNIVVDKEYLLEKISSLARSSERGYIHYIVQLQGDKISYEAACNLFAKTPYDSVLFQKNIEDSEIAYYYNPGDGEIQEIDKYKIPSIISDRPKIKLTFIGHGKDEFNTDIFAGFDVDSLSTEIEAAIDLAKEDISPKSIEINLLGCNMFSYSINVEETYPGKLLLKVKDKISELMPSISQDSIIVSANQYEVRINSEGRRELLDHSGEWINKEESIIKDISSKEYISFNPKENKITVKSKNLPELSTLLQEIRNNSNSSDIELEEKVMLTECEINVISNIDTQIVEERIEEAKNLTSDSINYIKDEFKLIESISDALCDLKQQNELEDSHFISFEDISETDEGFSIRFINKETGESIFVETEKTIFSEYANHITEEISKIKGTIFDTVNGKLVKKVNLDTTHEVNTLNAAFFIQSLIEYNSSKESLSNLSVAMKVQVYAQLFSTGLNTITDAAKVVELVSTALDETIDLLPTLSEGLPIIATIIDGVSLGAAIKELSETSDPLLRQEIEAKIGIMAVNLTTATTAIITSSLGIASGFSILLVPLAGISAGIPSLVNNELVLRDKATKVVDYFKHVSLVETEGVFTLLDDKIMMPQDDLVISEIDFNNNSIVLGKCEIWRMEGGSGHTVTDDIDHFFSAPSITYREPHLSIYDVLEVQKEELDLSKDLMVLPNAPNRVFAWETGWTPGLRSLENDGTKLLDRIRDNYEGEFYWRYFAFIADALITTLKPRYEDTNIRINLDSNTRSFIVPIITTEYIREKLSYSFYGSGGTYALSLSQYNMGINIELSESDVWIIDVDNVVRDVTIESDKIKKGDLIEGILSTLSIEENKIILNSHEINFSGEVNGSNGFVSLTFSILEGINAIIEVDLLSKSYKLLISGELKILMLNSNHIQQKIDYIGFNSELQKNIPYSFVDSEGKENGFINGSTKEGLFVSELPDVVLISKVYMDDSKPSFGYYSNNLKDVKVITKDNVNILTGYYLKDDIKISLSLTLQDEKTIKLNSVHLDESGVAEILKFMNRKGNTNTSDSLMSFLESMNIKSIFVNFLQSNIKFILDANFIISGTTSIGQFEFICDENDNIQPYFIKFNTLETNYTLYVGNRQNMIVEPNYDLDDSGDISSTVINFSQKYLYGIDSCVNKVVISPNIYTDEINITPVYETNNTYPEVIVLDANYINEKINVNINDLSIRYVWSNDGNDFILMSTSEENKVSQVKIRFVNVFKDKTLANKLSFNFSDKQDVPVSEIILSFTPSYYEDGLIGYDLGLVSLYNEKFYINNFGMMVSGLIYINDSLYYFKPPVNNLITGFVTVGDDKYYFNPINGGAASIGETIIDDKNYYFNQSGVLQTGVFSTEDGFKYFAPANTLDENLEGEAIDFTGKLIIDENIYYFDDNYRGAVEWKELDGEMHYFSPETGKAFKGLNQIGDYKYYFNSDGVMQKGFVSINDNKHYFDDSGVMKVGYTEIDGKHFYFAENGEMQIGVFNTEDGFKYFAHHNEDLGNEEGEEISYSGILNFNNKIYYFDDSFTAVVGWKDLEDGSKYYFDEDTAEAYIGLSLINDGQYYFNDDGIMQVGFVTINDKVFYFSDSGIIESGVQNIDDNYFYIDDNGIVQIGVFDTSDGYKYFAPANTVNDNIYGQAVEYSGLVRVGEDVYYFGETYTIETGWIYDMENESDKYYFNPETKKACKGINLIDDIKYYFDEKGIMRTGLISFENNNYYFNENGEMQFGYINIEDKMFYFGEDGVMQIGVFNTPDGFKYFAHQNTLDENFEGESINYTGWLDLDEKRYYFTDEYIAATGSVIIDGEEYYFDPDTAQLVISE

SMILES | IC50 (Toxin B [1]) [nM] | IC50 (Toxin B [2]) [nM] | IC50 (Toxin A) [nM] | remaining at 0.25 h [3] [%] | remaining at 0.25 h [4] [%] | Activity (Clostridioides difficile) | Activity [5] | Activity (Bifidobacterium longum) | Activity (Bacteroides fragilis) | AUC(0-t) at 24 h [6] [ng·h/mL] | AUC(0-t) at 24 h [7] [ng·h/mL] | Cmax [8] [ng/mL] | Cmax [9] [ng/mL] | Tmax [10] [min] | remaining at 0.25 h [11] [%] | Stability [12] | clearance [13] [mL/min/kg] | half-life [14] [min] | Vd [15] [L/kg] | Stability [16]
COc1cnc(NC(=O)c2ccc(CN3C(=O)c4ccc(Cl)cc4NC(=O)[C@H]3Cc3ccccn3)cc2)nc1 | 7 | 520 | 2600 | 90 | 77 | inactive | Non-Toxic | Non-Toxic | Non-Toxic | 2 | 181 | 2 | 27 | 30 | 50 | Unstable |  |  |  | 
Cc1ccc(NC(=O)c2ccc(CN3C(=O)c4ccc(Cl)cc4NC(=O)[C@H]3Cc3ccccn3)cc2)nc1 | 1 | 170 | 3200 | 63 | 43 | inactive | Non-Toxic | Non-Toxic | Non-Toxic | 200 | 1070 | 1030 | 2690 | 15 |  |  | 76 | 60 | 6.9 | Unstable
Cc1cc(NC(=O)c2ccc(CN3C(=O)c4ccc(Cl)cc4NC(=O)[C@H]3Cc3cccnc3)cc2)no1 | 50 | 19000 |  | 100 | 31 | inactive | Non-Toxic | Non-Toxic | Non-Toxic |  |  |  |  |  |  |  |  |  |  | 
O=C(Nc1ccccn1)c1ccc(CN2C(=O)c3ccc(Cl)cc3NC(=O)[C@H]2Cc2cccnc2)cc1 | 9 | 4500 |  | 97 | 57 | inactive | Non-Toxic | Non-Toxic | Non-Toxic |  |  |  |  |  |  |  |  |  |  | 
O=C(Nc1nccs1)c1ccc(CN2C(=O)c3ccc(Cl)cc3NC(=O)[C@H]2Cc2cccnc2)cc1 | 42 | 20000 |  | 61 | 67 | inactive | Non-Toxic | Non-Toxic | Non-Toxic |  |  |  |  |  |  |  |  |  |  | 
O=C(Nc1cnccn1)c1ccc(CN2C(=O)c3ccc(Cl)cc3NC(=O)[C@H]2Cc2cccnc2)cc1 | 78 | 13000 |  | 92 | 98 | inactive | Non-Toxic | Non-Toxic | Non-Toxic |  |  |  |  |  |  |  |  |  |  | 
COc1ccc(NC(=O)c2ccc(CN3C(=O)c4ccc(Cl)cc4NC(=O)[C@H]3Cc3ccccn3)cc2)nc1 | 3 | 43 | 1100 | 81 | 61 | inactive | Non-Toxic | Non-Toxic | Non-Toxic |  |  |  |  |  |  |  |  |  |  | 
